In patent US20220288156A1, “TREATMENT” (QUEEN MARY UNIVERSITY OF LONDON, priority 2019, published 2022):

Tests used:
[1] = system: AAC model of heart failure; experiment: Abdominal aortic constriction (AAC) pressure overload heart failure model, echocardiography; format: in vivo, mouse; conditions: for fractional shortening (FS %): prevention mode
From the text: Abdominal AAC, a common experimental procedure, was used to elicit pressure overload-induced heart failure in murine models. AAC provides a time-dependent, reproducible model of HF characterised by a significant rise in left ventricular weight, deleterious myocardial dilation, and a reduction in cardiac inotropy, and rise in myocardial fibrosis. Physiologically this mimics some of the clinical features of human aortic stenosis.
Male C57BL6 mice (Charles River) underwent AAC surgery at 4-5 weeks of age (between 20 and 22 g). Mice were anaesthetised with isoflurane, placed in a supine position on the procedure table, and an incision made along the ventral underbelly, extending from the xiphoid process of the sternum, down to the groin to reveal the abdominal muscle. The abdominal muscle was then cut the same distance along the linea alba to allow easy reattachment of the two halves. The two sides of the abdominal muscles were clipped back to reveal the abdominal gastrointestinal organs, and these were carefully manoeuvred to expose the underlying abdominal aorta. The aorta was cleaned of visceral fats, and carefully separated from parallel vasculature, whilst avoiding any spinal nerves. The abdominal aorta was then constricted using a 6-0 silk suture tied to the width of a 27-gauge needle at a position rostral to the renal artery bifurcation. Great care was taken to ensure the knot remained taut after tying. This was to ensure minimal variability amongst aortic lumen occlusion between animals, and therefore minimise differences in the degree of aortic stenosis. The skin and abdominal muscles were closed with a 6-0 silk suture thread. SHAM operated mice underwent the same operation with the exception of aortic constriction. In an effort to ensure reproducibility amongst AAC surgeries only male mice weighing between 20 and 22 g (correlating to 4-5 weeks of age) were used. Echocardiography was performed up to 3 days prior to surgery, 3 weeks following surgery, and then at 6 (and/or 12 weeks) following surgery. At the experimental end-point, mice were sacrificed and their lungs, kidneys and hearts excised. Hearts were halved longitudinally and either snap frozen in liquid nitrogen (for immunohistochemistry) or stored in an RNA later stabilisation solution (for RT-quantitative PCR) (ThermoFisher Scientific, Hertfordshire, UK).
Cilengitide (Bachem) was stored as a […] solution in saline at −20° C. prior to use, before thawing and serial diluting to an appropriate concentration with sterile saline for use. Injections were administered 3 times per week at the indicated doses intraperitoneally (IP). Low dose Cilengitide (ldCil) is classified as 50 μg/kg (27).
Cardiac function was assessed by transthoracic echocardiography using a VisualSonics Vevo 770 30-MHz transduction probe. Mice were anaesthetised with isoflurane (1.5% in O2), hair removed from their chest with hair removal cream, and then were placed in a supine position onto a warmed pad (46° C.). The chest was covered in ultrasound gel, and the transduction probe was positioned adjacent to the mitral valve, at the tips of the papillary muscles, and images were taken just below this to ensure positional reproducibility. LV internal diameter (LVID) and LV posterior wall thicknesses at diastole (d) and systole (s) were measured from short-axis M-mode images. LV ejection fraction (EF %) was calculated as follows: LVEF %=[(LVIDd)^3−(LVIDs)^3]/(LVIDd)^3×100; LV fractional shortening (FS %) was calculated as follows: LVFS %=(LVIDd−LVIDs)/LVIDd×100. Values were averaged across three beats. All efforts were made to ensure consistency between mouse echocardiographs, including: pad temperature to be maintained at 46° C., isoflurane anaesthesia at 1.5%, oxygen flow at 1.5 L/M, and cardiac function to be measured in the same anatomical location throughout.

[2] = system: AAC model of heart failure; experiment: Cardiac hypertrophy in AAC model (WGA cardiomyocyte perimeter, heart:body weight); format: in vivo, mouse; conditions: intervention mode, AAC surgery
From the text: (§1) Male C57BL6 mice (Charles River) underwent AAC surgery at 4-5 weeks of age (between 20 and 22 g). Mice were anaesthetised with isoflurane, placed in a supine position on the procedure table, and an incision made along the ventral underbelly, extending from the xiphoid process of the sternum, down to the groin to reveal the abdominal muscle. The abdominal muscle was then cut the same distance along the linea alba to allow easy reattachment of the two halves. The two sides of the abdominal muscles were clipped back to reveal the abdominal gastrointestinal organs, and these were carefully manoeuvred to expose the underlying abdominal aorta. […] Hearts were halved longitudinally and either snap frozen in liquid nitrogen (for immunohistochemistry) or stored in an RNA later stabilisation solution (for RT-quantitative PCR) (ThermoFisher Scientific, Hertfordshire, UK).
5 μm snap-frozen sections were fixed in 10% acetone, washed in phosphate buffered saline, PBS, blocked in 5% normal goat serum/PBS for 1 h at room temperature and incubated with WGA directly conjugated to Alexa Fluor 488 (Invitrogen) (1:100) in blocking buffer (5% normal goat serum/PBS) for 2 h at room temperature. […] Images were taken with a Zeiss Axioplan microscope, and the cardiomyocyte size was analysed with ImageJ™ software. 100-200 cells per heart were measured to determine cardiomyocyte size.

[3] = system: AAC model of heart failure; experiment: Cardiac blood vessel density (CD31 immunostaining) in AAC model; format: in vivo, mouse; conditions: ldCil for 3 weeks
From the text: as §1
For anti-CD31 (BD Bioscience) detection, 5 μm snap-frozen sections were blocked in 5% normal goat serum in PBS for 1 h, followed by incubation with anti-CD31 primary antibody (clone H-3, sc-376764, Santa Cruz, 1:100) in blocking buffer (5% normal goat serum in PBS) for 2 h at room temperature. […] To quantify cardiac blood vessel density, the number of CD31-positive blood vessels present across an entire area of abdominally-orientated cardiac tissue was counted within a field of view taken at 40× magnification. […]

[4] = system: mouse cardiac endothelial cells; experiment: RNA-Seq of cardiac endothelial cells treated with ldCil; format: cell-based
[5] = system: AngII-stressed mouse cardiomyocytes; experiment: Western blot of TCA cycle enzymes in AngII-stressed cardiomyocytes; format: cell-based; conditions: Western blot densitometry
Procedure: Following 5 days culture at 37° C., 5% CO2, primary mouse cardiomyocytes were serum starved for 24 h in a 0.5 FBS-DMEM media. On day 6 cells were washed and refed with complete cardiomyocyte growth medium plus or minus 1 μM angiotensin II (Alfa Aesar), and this was repeated on day 7. In tandem to angiotensin II treatment, cells were either treated with vehicle or low dose Cilengitide (20 nM) (Bachem). On 8-day cardiomyocytes were lysed for RNA analysis.
Cardiomyocytes were prepared and treated as above. At the end of the experiment, cells were lysed with RIPA buffer for 10 min on ice and the cell debris pelleted by centrifugation of the lysate at 9300 g for 10 min at 4° C. Protein concentration was determined from the cell supernatant and 20 μg protein loaded onto 10% gels. Membranes were probed for succinate dehydrogenase (Abcam, ab178423), pyruvate dehydrogenase (Abcam, ab131263), aconitase (Abcam, ab129069) and GAPDH (Millipore, AB2302). Densitometric readings of band intensities were obtained using the JmageJ™ software.

[6] = system: pathological angiogenesis; conditions: cited from earlier work
[7] = intervention mode, AAC surgery, ldCil 50 μg/kg 3 times a week from 3-6 weeks post-surgery
[8] = low doses, 50 μg/kg in vivo or 2 nM in vitro

CC(C)[C@H]1C(=O)N[C@@H](CCCN=C(N)N)C(=O)NCC(=O)N[C@@H](CC(=O)O)C(=O)N[C@H](Cc2ccccc2)C(=O)N1C [Cilengitide, c(f*VRGD)]
fractional shortening over time ([1]; AAC surgery, ldCil 3-6 weeks post-surgery, between 3 and 6 weeks): elevated fractional shortening significantly | persistence of fractional shortening rescue after treatment cessation ([1]; AAC surgery, ldCil 3-6 weeks post-surgery, followed to 12 weeks): sustained up until 12 weeks post-surgery | FS % over time ([1]; SHAM surgery, ldCil 3-6 weeks post-surgery, between 3 and 6 weeks or 6 and 12 weeks): not significantly altered | endpoint FS % [1, 7]: rescued | endpoint ejection fraction (EF %) [1, 7]: rescued | endpoint left ventricular internal diameter during systole (LVID) [1, 7]: rescued | fractional shortening (FS %) ([1]; AAC surgery, 50 μg/kg IP 3 times a week for 7 weeks immediately after surgery, endpoint 7 weeks): restored fractional shortening to that observed in SHAM treated mice | fractional shortening (FS %) ([1]; AAC surgery, 500 μg/kg IP 3 times a week for 7 weeks): but not 500 μg/kg, Cilengitide corrects the fractional shortening effects | fractional shortening (FS %) ([1]; SHAM surgery, 50 μg/kg IP 3 times a week for 7 weeks): no significant effect | heart:body weight ratio [2]: blunted increases | cardiomyocyte perimeter (WGA stained sections) ([2]; compared with vehicle): reduced | cardiac blood vessel density ([3]; AAC surgery): significantly enhanced | cardiac blood vessel density ([3]; SHAM surgery): no significant effect | concordantly differentially expressed genes ([4]; 24 h and 48 h ldCil treatment vs control): 54 genes | expression of proangiogenic or cardioprotective regulators (Csf2rb, Eln, Nov, CCL7, Mt2, Socs2, Fgf23, Slc30a1, Col6a3, Mt1, Ggt5, Adam8) ([4]; both 24 h and 48 h): differentially upregulated | gene sets involved in mitosis, DNA repair and cell cycle (enrichment analysis) ([4]; both timepoints): significant increases | pyruvate dehydrogenase protein expression [5]: rescues the elevated expression | chemotherapy efficacy in cancer models in vivo ([6]; ldCil with chemotherapy): improve chemotherapy efficacy | effect on quiescent vasculature [6, 8]: no apparent effects | pathological angiogenesis [6, 8]: enhance pathological angiogenesis
